Results taken from patent US9290741B2, “Simplified methods for generating endothelial cells from human pluripotent stem cells under defined conditions” (Wisconsin Alumni Research Foundation, priority 2013, dated 2016).

Experiments:
[1] = tested on: hPSC-derived endothelial cells; test: Monolayer integrity: transendothelial electrical resistance (TEER); format: cell-based, human; conditions: 100 ng/mL VEGF or 10 μM oME, versus control
[2] = tested on: hPSC-derived endothelial cells; test: Monolayer integrity: 40-kDa FITC-dextran permeability; format: cell-based, human; conditions: 100 ng/mL VEGF or 10 μM oME, 24 hr of treatment, versus control
19-9-11 iPSCs = test: Angioblast differentiation of hPSCs, flow cytometry of CD34 and CD31 at day 5; format: cell-based, human; conditions: for induction of angioblast differentiation (percentage of CD34^+CD31^+ cells): 0.6 μM CHIR98014 or 0.6 μM BIO-acetoxime 2 days in LaSR medium, then StemPro-34 3 days, no VEGF, compared with 6 μM CHIR99021
Protocol: Cells were then cultured in mTeSR1, changed daily. At day 0, cells were treated with 6-10 μM CHIR99021 (Selleckchem) for 2 days in LaSR basal medium, which consists of Advanced DMEM/F12, 2.5 mM GlutaMAX, and 60 μg/ml ascorbic acid (Sigma, A8960). […] Cells were dissociated into single cells with Accutase for 10 min and then fixed with 1% paraformaldehyde for 20 min at room temperature and stained with primary and secondary antibodies (Table 2) in PBS plus 0.1% Triton X-100 and 0.5% BSA. Data were collected on a FACSCaliber flow cytometer (Becton Dickinson) and analyzed using FlowJo.

[3] = tested on: hPSC-derived endothelial cells; conditions: 50 ng/ml VEGF, 24 h; day 60 endothelial cells
Protocol: To assess the formation of capillary structures, 1×10^5 endothelial cells in 0.4 ml EGM-2 medium (Lonza) supplemented with 50 ng/ml VEGF (R&D Systems) were plated into one well of 24-well tissue culture plate pre-coated with 250 μl Matrigel™ (BD Bioscience). Tube formation was observed by light microscopy after 24 h of incubation.

19-9-11 ishcat iPSCs = test: Flow cytometry analysis of Brachyury expression during differentiation; format: cell-based, human; conditions: 6 μM CHIR99021, in the absence of dox
Protocol: FIG. 8 Knockdown of β-catenin abolishes endothelial differentiation of hPSCs 19-9-11 ishcat iPSCs were cultured in LaSR basal medium containing 6 μM CH and/or 2 μg/ml doxycycline for 2 days. Flow cytometry analysis of Brachyury expression was performed after 2 days of differentiation.
Cells were dissociated into single cells with Accutase for 10 min and then fixed with 1% paraformaldehyde for 20 min at room temperature and stained with primary and secondary antibodies (Table 2) in PBS plus 0.1% Triton X-100 and 0.5% BSA. Data were collected on a FACSCaliber flow cytometer (Becton Dickinson) and analyzed using FlowJo.

[4] = tested on: hPSC-derived endothelial cells; test: Flow cytometry analysis of ICAM-1 surface expression after TNF-α treatment; format: cell-based, human; conditions: 10 ng/mL TNF-α for 16 hours versus unstimulated cells
From the text: FIG. 6 Characterization of endothelial cells derived from hPSCs (A) 19-9-11 iPSCs were differentiated as illustrated in FIG. 3A using LaSR basal medium. At day 5, CD34^+ cells were enriched and cultured in endothelial medium on laminin-coated plates. At different time points, the cell numbers were counted. (B-D) the purified day 60 endothelial cells were immunostained with (B) VE-cadherin and CD31, and tested for (C) tube-forming ability upon VEGF treatment and the ability to (D) uptake acetylated low-density lipoprotein (AcLDL). (E) Flow cytometry analysis of surface protein expression of ICAM-1 of untreated cells or cells treated with 10 ng/mL TNF-α for 16 hours. Error bars represent the s.e.m. of three independent experiments. (F-G) Barrier phenotype of the hPSC-derived endothelial cells. […] Barrier function was assessed by measuring transendothelial electrical resistance (TEER) 48 hours after seeding. […] (F) Transendothelial electrical resistance (TEER) was measured as a function of time, and normalized to the initial TEER value (36.7±4.3 Ωcm^2. (G) TEER and fluorescent dextran permeability were measured 24 hours after plating. Error bars represent the s.e.m. of three biological samples. ** p<0.005, VEGF (or oME) versus control; t test. […]

H9 cells = test: Angioblast differentiation of hPSCs with PD0325901 addition, flow cytometry of CD34 and CD31 at day 5; format: cell-based, human; conditions: 1 μM PD0325901 added during differentiation induced with 6 μM CHIR99021
Protocol: FIG. 2 CD34^+CD31^+ angioblast differentiation induced by Gsk3 inhibitors in hPSCs is β-catenin dependent. […] At day 5, the percentage of CD34^+CD31^+ cells in culture was assessed by flow cytometry. (B) 19-9-11 iscramble and 19-9-11 […] cultured in mTeSR1 containing 2 μg/ml doxycycline. After 3 days, mRNA was collected and β-catenin expression evaluated by qPCR. Error bars represent the s.e.m. of 3 biological replicates. # […] versus iscramble; […] cultured in LaSR medium containing 6 μM CHIR99021 for 2 days before exposure to StemPro-34 medium for 3 days, with 2 μg/ml dox addition at the indicated times. 5 days after initiation of differentiation, cells were analyzed for CD34 and CD31 expression by flow cytometry. Error bars represent the s.e.m. of three independent experiments. […] hPSCs maintained on a MatrigelTM-coated surface in mTeSR1 were dissociated into single cells with Accutase (Life Technologies) at 37° C. for 5 min and then seeded onto a MatrigelTM-coated cell culture dish at 50,000 cell/cm^2 in mTeSR1 supplemented with 5 μM ROCK inhibitor Y-27632 (Selleckchem)(day -3) for 24 hours. Cells were then cultured in mTeSR1, changed daily. […] Data were collected on a FACSCaliber flow cytometer (Becton Dickinson) and analyzed using FlowJo.

## CO[C@@H]1[C@@H]2OP(=O)(O)OC[C@H]2O[C@H]1n1c(Sc2ccc(Cl)cc2)nc2c(N)ncnc21 [8-pCPT-2′O-Me-cAMP, 8-(4-chlorophenylthio)-2′-O-Me-cAMP]
[1]
  transendothelial electrical resistance (TEER): increased
[2]
  dextran permeability (40 kD): decreased

## VEGF
19-9-11 iPSCs; VEGF in StemPro-34 for 3 days after CHIR99021, day 5
  effect of VEGF treatment on yield of CD34^+CD31^+ cells: did not significantly increase
[1]
  transendothelial electrical resistance (TEER): sustained decrease
[2]
  dextran permeability (40 kD): increase
[3]
  vascular tube formation in Matrigel matrix: formed vascular tubes

## Cc1c[nH]c(-c2cnc(NCCNc3ccc(C#N)cn3)nc2-c2ccc(Cl)cc2Cl)n1 [CHIR99021]
19-9-11 iPSCs; 6-10 μM CHIR99021 2 days, then 3 days StemPro-34 without VEGF, day 5
  CD31^+CD34^+ angioblasts generated: 25%
19-9-11 iPSCs; CHIR99021 (6 μM) 2 days in LaSR basal medium, then 3 days StemPro-34 with or without VEGF, day 5
  CD34^+CD31^+ cells generated: more than 20%
19-9-11 iPSCs; LaSR basal medium, CHIR99021 2 days then 3 days without, seeding density 50,000 cells per cm2 at day -3
  CD34^+CD31^+ cells produced: 55%
19-9-11 iPSCs; single basal medium: LaSR basal medium with CHIR99021 2 days, then 3 days same medium without
  CD34^+CD31^+ cells in 5 days: 25%
19-9-11 iPSCs; single basal medium: RPMI/B27 or EC medium containing serum, with CHIR99021 2 days, then 3 days without
  CD34^+CD31^+ cells in 5 days: not supporting differentiation to any detectable CD34^+CD31^+ cells
19-9-11 ishcat iPSCs
  Brachyury expressing cells by day 2: virtually pure population

## BIO-acetoxime
19-9-11 iPSCs
  induction of angioblast differentiation (percentage of CD34^+CD31^+ cells): effectively induced angioblast differentiation to a similar extent as CHIR99021

## TNFα
[4]
  expression of ICAM1: greatly increased

## O=C(NOC[C@H](O)CO)c1ccc(F)c(F)c1Nc1ccc(I)cc1F [PD0325901]
H9 cells
  effect on CD34^+CD31^+ cell differentiation: substantially diminished

## CHIR98014
19-9-11 iPSCs
  induction of angioblast differentiation (percentage of CD34^+CD31^+ cells): effectively induced angioblast differentiation to a similar extent as CHIR99021
